Laboratory results as given in patent publication US9273038B2, “Solid forms of an ion channel modulator” (Gilead Sciences, Inc., priority 2014, dated 2016).
Where two headings read alike, the source gives them in different places.

Columns and labels:
Format in all cases: physicochemical
[1] = Dynamic vapor sorption (DVS) analysis
Procedure: The solids with unique XRPD patterns were characterized by DSC, TGA, ^1H NMR, KF and DVS. All XRPD patterns were obtained in the experimental setting as follows: 45 kV, 40 mA, Kα1=1.5406 Å, scan range 2 to 40°, step size 0.0167°, counting time: 15.24 s. DSC and TGA analyses were performed using 10° C./min heating rate over the 20 to 350° C. temperature range.

[2] = Thermal stability of Compound I Form IV under vacuum at 45° C. (XRPD, HPLC); conditions: for HPLC (% AN) / XRPD / HPLC (% ES): drying under vacuum at 45° C.
Procedure: Drying study was also performed of Compound I Form IV under vacuum at 45° C. in an attempt to determine the chemical stability of this material by HPLC as well as form stability by XRPD.

[3] = Stable form screen of Compound I Form IV (slurry at room temperature); conditions: for solubility at 24 h: slurry of the solid in solvent, thermodynamic from solid, read-out: Solubility after 24 h
Procedure: Compound I Form IV (about 50 mg) was slurried in 0.5-1 mL of solvent and allowed to stir at room temperature for 2 weeks. […] Similar results were observed after 2 weeks of equilibration (Table 15).

[4] = Abbreviated stable form screen of Compound I Form V (slurry at room temperature); conditions: for solubility at 3 days: slurry of the solid in solvent, organic solvent or mixture, thermodynamic from solid, solid converted to Form VI
Procedure: Abbreviated stable form screen of Compound I Four V was performed by slurrying […] (about 100 mg) in IPA, IPAc and MTBE (1-2 mL) in an attempt to obtain anhydrous form as summarized in Table 16. The first aliquot (about 0.5 mL) was taken for XRPD analysis and solubility assessment after 3 days of equilibration at room temperature. Solids were analyzed before and after overnight drying at 45° C. […] After two weeks equilibration at room temperature no form change was observed. XRPD patterns of all samples were consistent with Compound I Form VI.

[5] = Hydrate screen in ethanol/water and isopropanol/water: solubility and relative form stability; conditions: for Form III Solubility mg/g (1 day): from 50:50 w/w mixture of Form I & III
Procedure: A hydrate screen starting from Form I was also conducted to evaluate whether hydrates of Compound I exist. The hydrate screen was conducted in ethanol/water (Table 6) and isopropanol/water (Table 7) mixtures, and in both cases, a new polymorph of Compound I was discovered (denoted as Form III).
From the initial hydrate screens presented in Table 6 and Table 7 no apparent trends were observed. In this case, all slurries of Form I in EtOH/water or IPA/water mixtures remained unchanged after 2 weeks (Table 8 and Table 9). Since Form III has been observed previously under the same conditions, it was suspected that the lack of form conversion is mainly due to slow kinetics. […] Attempts to determine the relative stability between Forms I and III at lower water activities were unsuccessful since Form I either was too soluble or oiled out at water activities of 0.8 or below.

[6] = under vacuum at 45° C., 2 and 7 days

Compound: CCS(=O)(=O)O.O=C1c2cc(-c3ccc(OC(F)(F)F)cc3)ccc2OCCN1Cc1ncccn1 [Compound I Form XVI, 4-(pyrimidin-2-ylmethyl)-7-(4-(trifluoromethoxy)phenyl)-3,4-dihydrobenzo[f][1,4]oxazepin-5(2H)-one esylate]
- Relative humidity of deliquescence (DVS) [1]: around 90 % RH

Compound: CS(=O)(=O)O.O=C1c2cc(-c3ccc(OC(F)(F)F)cc3)ccc2OCCN1Cc1ncccn1 [Compound I Form IV, 4-(pyrimidin-2-ylmethyl)-7-(4-(trifluoromethoxy)phenyl)-3,4-dihydrobenzo[f][1,4]oxazepin-5(2H)-one methanesulfonic acid]
- HPLC (% AN) ([2]; 0 days): 100 % AN
- XRPD ([2]; 0 days): Form IV
- HPLC (% ES) ([2]; 0 days, theoretical strength 81.21%): 80.2 % ES
- HPLC (% AN) ([2]; 2 days): 100 % AN
- XRPD ([2]; 2 days): Form IV
- HPLC (% ES) ([2]; 2 days, theoretical strength 81.21%): 85.4 % ES
- HPLC (% AN) ([2]; 7 days): 100 % AN
- XRPD ([2]; 7 days): Form IV
- HPLC (% ES) ([2]; 7 days, theoretical strength 81.21%): 82.1 % ES
- Form stability by XRPD during drying (in words) [2, 6]: did not show any form change
- HPLC purity during drying [2, 6]: 100 % (AUC)
- HPLC strength during drying ([2]; under vacuum at 45° C., 2 and 7 days, theoretical strength 81.21%): 80 to 85%
- Hygroscopicity by DVS (in words) [1]: slightly hygroscopic
- Moisture uptake at 90% RH (DVS) [1]: 1.0 wt %
- Moisture uptake at 90% RH (DVS) ([1]; listed as Form IV): 1.01 wt % at
- Hygroscopicity by DVS (in words) ([1]; listed as Form IV): Slightly
- Form stability in slurry by XRPD (in words) ([3]; 17 solvents, 24 h, similar after 2 weeks, water afforded Form III (wet), Form III + Form II after air drying): no form change in all solvents except water
- solubility at 24 h ([3]; aqueous with cosolvent or surfactant or cyclodextrin, EtOH/water 0.8 water activity (480 μL H2O and 520 μL EtOH), all solids dissolved): > 150 mg/mL
- solubility at 24 h ([3]; organic solvent or mixture, 2-Me-THF): 2.3 mg/mL
- solubility at 24 h ([3]; organic solvent or mixture, Acetone): 4.16 mg/mL
- solubility at 24 h ([3]; organic solvent or mixture, DCM): 5.48 mg/mL
- solubility at 24 h ([3]; organic solvent or mixture, EtOAc): 1.26 mg/mL
- solubility at 24 h ([3]; organic solvent or mixture, EtOH): 12.2 mg/mL
- solubility at 24 h ([3]; organic solvent or mixture, Heptane): 0.1 mg/mL
- solubility at 24 h ([3]; organic solvent or mixture, IPA): 5.42 mg/mL
- solubility at 24 h ([3]; organic solvent or mixture, IPAc): 0.78 mg/mL
- solubility at 24 h ([3]; organic solvent or mixture, MEK): 3.14 mg/mL
- solubility at 24 h ([3]; organic solvent or mixture, MIBK): 1.42 mg/mL
- solubility at 24 h ([3]; organic solvent or mixture, MTBE): 0.34 mg/mL
- solubility at 24 h ([3]; organic solvent or mixture, MeCN): 4.82 mg/mL
- solubility at 24 h ([3]; organic solvent or mixture, MeOH): 40.4 mg/mL
- solubility at 24 h ([3]; organic solvent or mixture, THF): 7.94 mg/mL
- solubility at 24 h ([3]; organic solvent or mixture, Toluene): 0.36 mg/mL
- solubility at 24 h ([3]; water, Water, solid converted to Form III (wet)): 4.34 mg/mL

Compound: 4-(pyrimidin-2-ylmethyl)-7-(4-(trifluoromethoxy)phenyl)-3,4-dihydrobenzo[f][1,4]oxazepin-5(2H)-one edisylate [Compound I Form XVII]
- Hygroscopicity by DVS (in words) [1]: slightly hygroscopic
- Moisture uptake at 90% RH (DVS) [1]: about 1%

Compound: O=C1c2cc(-c3ccc(OC(F)(F)F)cc3)ccc2OCCN1Cc1ncccn1.O=S(=O)(O)c1ccccc1 [Compound I Form V, 4-(pyrimidin-2-ylmethyl)-7-(4-(trifluoromethoxy)phenyl)-3,4-dihydrobenzo[f][1,4]oxazepin-5(2H)-one benzene sulfonic acid]
- Form stability in slurry by XRPD (in words) ([4]; IPA, IPAc and MTBE, 3 days, no further change after two weeks): all solids converted to anhydrous Compound I Form VI
- solubility at 3 days ([4]; IPA): 16.1 mg/mL
- solubility at 3 days ([4]; IPAc): 2.2 mg/mL
- solubility at 3 days ([4]; MTBE): 0.46 mg/mL

Compound: O=C1c2cc(-c3ccc(OC(F)(F)F)cc3)ccc2OCCN1Cc1ncccn1 [Compound I Form III, 4-(pyrimidin-2-ylmethyl)-7-(4-(trifluoromethoxy)phenyl)-3,4-dihydrobenzo[f][1,4]oxazepin-5(2H)-one]
- Form III Solubility mg/g (1 day) ([5]; 10% EtOH/water, water activity >0.9): 0.06 mg/g
- Form III Solubility mg/g (1 day) ([5]; 10% IPA/water, water activity >0.9): 0.06 mg/g
- Form III Solubility mg/g (1 day) ([5]; 20% EtOH/water, water activity 0.8-0.9): 0.10 mg/g
- Form III Solubility mg/g (1 day) ([5]; 20% IPA/water, water activity >0.9): 0.19 mg/g
- Form III Solubility mg/g (1 day) ([5]; 25% IPA/water, water activity >0.9): 0.78 mg/g
- Form III Solubility mg/g (1 day) ([5]; 30% EtOH/water, water activity 0.8-0.9): 0.49 mg/g
- Form III Solubility mg/g (1 day) ([5]; 30% IPA/water, water activity >0.9): 3.2 mg/g
- Form III Solubility mg/g (1 day) ([5]; 35% EtOH/water, water activity 0.8-0.9): 1.8 mg/g
- Relative polymorph stability (competition slurry Form I/Form III) ([5]; water activities above 0.8, EtOH/water or IPA/water): the most stable polymorph of Compound I

Compound: O=C1c2cc(-c3ccc(OC(F)(F)F)cc3)ccc2OCCN1Cc1ncccn1.O=S(=O)(O)c1ccccc1 [Compound I Form VI, 4-(pyrimidin-2-ylmethyl)-7-(4-(trifluoromethoxy)phenyl)-3,4-dihydrobenzo[f][1,4]oxazepin-5(2H)-one benzene sulfonic acid]
- Hygroscopicity by DVS (in words) [1]: non-hygroscopic
- Moisture uptake at 90% RH (DVS) [1]: about 0.1%
- Moisture uptake at 90% RH (DVS) ([1]; listed as Form VI): 0.11 wt % at
- Hygroscopicity by DVS (in words) ([1]; listed as Form VI): Non-

Compound: O=C(O)C(=O)O.O=C1c2cc(-c3ccc(OC(F)(F)F)cc3)ccc2OCCN1Cc1ncccn1 [Compound I Form XVIII, 4-(pyrimidin-2-ylmethyl)-7-(4-(trifluoromethoxy)phenyl)-3,4-dihydrobenzo[f][1,4]oxazepin-5(2H)-one oxalate]
- Hygroscopicity by DVS (in words) [1]: non-hygroscopic
- Moisture uptake at 90% RH (DVS) [1]: about 0.075%
